In EP3124047A1, “PENTACYCLIC TRITERPENOIDS FOR INJECTION LIPOLYSIS” (Merz Pharma GmbH & Co. KGaA, priority 2015, dated 2017):
Where two headings read alike, the source gives them in different places.

How the values were obtained:
mature adipocytes = test: Alamar blue (resazurin) cell viability assay on mature adipocytes, surrogate for adipocytolytic potential; assay type: cell-based, human; conditions: for IC50: viability, 48 hrs after compound incubation; for lower IC50 value compared to deoxycholic acid (difference, higher adipocytolytic effect): IC50 ratio versus deoxycholic acid, preadipocytes and adipocytes
Method: (§1) The following experimental setup was used for determination of adipocytolytic potential of test compounds with preadipocytes and mature adipocytes: • Primary human preadipocytes (PromoCell) were seeded in Preadipocyte Growth Medium at 45000 cells/cm^2 to allow attachment overnight. Cells were cultured at 37°C and 5% CO2 until postconfluence. Differentiation was started with incubation of cells in Differentiation Medium for 7 days followed by incubation in Nutrition medium for further 14 days. After differentiation process, mature adipocytes were incubated with indicated concentration of indicated triterpenes.
(§2) 6 replicates of each test compound concentration were tested. Each plate included a negative control and a compound interference control (for all concentrations, duplicates).
(§3) Cell viability as surrogate for adipocytolytic potential of compounds were analysed by alamar blue assay. In brief, 20µl of a 0,1mg/ml Resazurin sodium salt (Sigma; R7017-1 G) solution was added to each well 48 hrs after compound incubation. The cells were incubated for 90 min at 37°C and 5% CO2 and the resulting conversion of resazurin to resorufin was measured by a fluorescence plate reader at 590 nm. Vehicle controls were set as 100%. IC50-values were analysed using SigmaBlotV13.

[1] = test system: Primary human preadipocytes; test: Alamar blue (resazurin) cell viability assay on preadipocytes; assay type: cell-based; conditions: for viability at 10 µM / viability at 30 µM / viability at 50 µM / viability at 100 µM / viability at 300 µM: read-out: Viability Preadipocytes (%); for IC50: viability, 48 hrs after compound incubation, read-out: IC50 [µM] Pre-ad ipocytes
Method: as §1, §2, §3

adipocytes [2] = test: Caspase-Glo 3/7 Assay, apoptosis induction in adipocytes; assay type: cell-based, human; conditions: for Apoptosis Adipocytes (%): basal apoptosis (vehicle) = 100%
Method: as §1
For analysing the potential of compounds to induce apoptosis the Caspase-Glo® 3/7 Assay (Promega) was used as recommended by the supplier. In brief, 100µl Caspase Reagent were added to 100µl cell culture medium and cells were incubated at 37°C and 5% CO2 for 1 hr. Luminescence signal was measured with a SynergyH4 plate reader. Vehicle controls were used to define basal apoptosis as 100%. Table 1 Impact on viability of adipocytes after 48h incubation with indicated compound in increasing concentration

adipocytes [3] = test: LDH release from adipocytes (indicative for membrane damage); assay type: cell-based, human; conditions: compared with deoxycholate; far not as high as 4fold
[4] = Homo sapiens, Adipocyte, 48 h, 10 µM, 48h incubation, vehicle controls = 100%, read-out: Viability Adipocytes (%)
[5] = Homo sapiens, Adipocyte, 48 h, 50 µM, 48h incubation, vehicle controls = 100%, read-out: Viability Adipocytes (%)
[6] = Homo sapiens, Adipocyte, 48 h, 100 µM, 48h incubation, vehicle controls = 100%, read-out: Viability Adipocytes (%)
[7] = Homo sapiens, Adipocyte, 48 h, 300 µM, 48h incubation, vehicle controls = 100%, read-out: Viability Adipocytes (%)
[8] = 10 µM, 48h incubation, vehicle controls = 100%
[9] = 30 µM, 48h incubation, vehicle controls = 100%
[10] = 50 µM, 48h incubation, vehicle controls = 100%
[11] = 100 µM, 48h incubation, vehicle controls = 100%
[12] = 300 µM, 48h incubation, vehicle controls = 100%
[13] = Homo sapiens, Adipocyte, 48 h, read-out: Viability Adipocytes (%), 10 µM, 48h incubation, vehicle controls = 100%
[14] = Homo sapiens, Adipocyte, 48 h, read-out: Viability Adipocytes (%), 30 µM, 48h incubation, vehicle controls = 100%
[15] = Homo sapiens, Adipocyte, 48 h, read-out: Viability Adipocytes (%), 50 µM, 48h incubation, vehicle controls = 100%
[16] = Homo sapiens, Adipocyte, 48 h, read-out: Viability Adipocytes (%), 100 µM, 48h incubation, vehicle controls = 100%
[17] = Homo sapiens, Adipocyte, 48 h, read-out: Viability Adipocytes (%), 300 µM, 48h incubation, vehicle controls = 100%
[18] = Homo sapiens, Adipocyte, 48 h, 30 µM, 48h incubation, vehicle controls = 100%, read-out: Viability Adipocytes (%)

| Compound | viability at 10 µM (mature adipocytes; [4]) [%] | viability at 50 µM (mature adipocytes; [5]) [%] | viability at 100 µM (mature adipocytes; [6]) [%] | viability at 300 µM (mature adipocytes; [7]) [%] | IC50 (mature adipocytes; Homo sapiens, Adipocyte) [µM] | viability at 10 µM [1, 8] [%] | viability at 30 µM [1, 9] [%] | viability at 50 µM [1, 10] [%] | viability at 100 µM [1, 11] [%] | viability at 300 µM [1, 12] [%] | IC50 [1] [µM] | viability at 10 µM (mature adipocytes; [13]) [%] | viability at 30 µM (mature adipocytes; [14]) [%] | viability at 50 µM (mature adipocytes; [15]) [%] | viability at 100 µM (mature adipocytes; [16]) [%] | viability at 300 µM (mature adipocytes; [17]) [%] | lower IC50 value compared to deoxycholic acid (difference, higher adipocytolytic effect) (mature adipocytes) | viability at 30 µM ([1]; 48 h) [%] | viability at 50 µM ([1]; 48 h) [%] | viability at 30 µM (mature adipocytes; [18]) [%] | other results |
| --- | --- | --- | --- | --- | --- | --- | --- | --- | --- | --- | --- | --- | --- | --- | --- | --- | --- | --- | --- | --- | --- |
| C[C@H](CCC(=O)O)[C@H]1CC[C@H]2[C@@H]3CC[C@@H]4C[C@H](O)CC[C@]4(C)[C@H]3C[C@H](O)[C@]12C [Deoxycholic acid, reference compound] | 107 | 95.6 | 94.3 | 22.1 | 244 | 96.2 | 92.8 | 95.6 | 98 | 26.1 | 232 | – | – | – | – | – | – | – | – | – | viability at 200 µM (mature adipocytes; Homo sapiens, Adipocyte, 48 h, 200 µM, concentration required for 50%-decrease in viability): ~50% |
| CC1(C)CC[C@]2(C(=O)O)CC[C@]3(C)C(=CC[C@@H]4[C@@]5(C)CC[C@H](O)C(C)(C)[C@@H]5CC[C@]43C)[C@@H]2C1 [Oleanolic acid, (4aS,6aR,6aS,6bR,8aR,10S,12aR,14bS)-10-hydroxy-2,2,6a,6b,9,9,12a-heptamethyl-1,3,4,5,6,6a,7,8,8a,10,11,12,13,14b-tetradecahydropicene-4a-carboxylic acid] | – | – | – | – | 92.8 | – | – | – | – | – | 125 | 114 | 110 | 117 | 32.4 | 15.8 | 2.5 fold | 79.1 | 83.4 | – | viability at 100 µM ([1]; 48 h): 53.3%; viability at 300 µM ([1]; 48 h): 0% |
| C[C@H]1[C@H](C)CC[C@]2(C(=O)O)CC[C@]3(C)C(=CC[C@@H]4[C@@]5(C)C[C@@H](O)[C@H](O)C(C)(C)[C@@H]5CC[C@]43C)[C@H]12 [Corosolic acid, (1S,2R,4aS,6aR,6aS,6bR,8aR,10R, 11R,12aR,14bS)-10,11-Dihydroxy-1,2,6a,6b,9,9,12a-heptamethyl-2,3,4,5,6,6a,7,8,8a,10,11,12,13,14b-tetradecahydro-1H-picene-4a-carboxylic acid] | – | – | – | – | 45 | – | – | – | – | – | 43.1 | 92.9 | 60.5 | 45.3 | 6.06 | 0.47 | – | 68.6 | 20.4 | – | viability at 10 µM ([1]; 48 h): 94.7%; viability at 100 µM ([1]; 48 h): 0%; viability at 300 µM ([1]; 48 h): 0% |
| C[C@H]1[C@H](C)CC[C@]2(C(=O)O)CC[C@]3(C)C(=CC[C@@H]4[C@@]5(C)CC[C@H](O)C(C)(C)[C@@H]5CC[C@]43C)[C@H]12 [Ursolic acid, (1S,2R,4aS,6aR,6aS,6bR,8aR,10S,12aR,14bS)-10-hydroxy-1,2,6a,6b,9,9,12a-heptamethyl-2,3,4,5,6,6a,7,8,8a,10,11,12,13,14b-tetradecahydro-1H-picene-4a-carboxylic acid] | 92.4 | 14.9 | 13.4 | 10.3 | 24.4 | 74.8 | 12.7 | 0.32 | 0 | 0 | 20.1 | – | – | – | – | – | about 10 fold | – | – | 28.9 | – |
| CC1(C)CC[C@]2(C(=O)O)CC[C@]3(C)C(=CC[C@@H]4[C@@]5(C)C[C@@H](O)[C@H](O)C(C)(C)[C@@H]5CC[C@]43C)[C@@H]2C1 [Maslinic acid, (4aS,6aR,6aS,6bR,8aR,10R,11R,12aR,14bS)-10,11-dihydroxy-2,2,6a,6b,9,9,12a-heptamethyl-1,3,4,5,6,6a,7,8,8a,10,11,12,13,14b-tetradecahydropicene-4a-carboxylic acid] | 96.9 | ~50 | 4.86 | 0.3 | 53.4 | 96.4 | 76 | 45.6 | 2.42 | 0 | 54.3 | – | – | – | – | – | – | – | – | 76.7 | Viability Adipocytes (%) (mature adipocytes; [10]): 47.08%; Apoptosis Adipocytes (%) (adipocytes [2]; 30 µM, 6 hrs): 97.17%; Apoptosis Adipocytes (%) (adipocytes [2]; 30 µM, 48hrs): 121.70%; Apoptosis Adipocytes (%) (adipocytes [2]; 50 µM, 6 hrs): 126.43%; Apoptosis Adipocytes (%) (adipocytes [2]; 50 µM, 48hrs): 116.95%; max. apoptosis induction over basal levels (adipocytes [2]; 100 µM after 6 hrs): 6.6 fold; Apoptosis Adipocytes (%) (adipocytes [2]; 100 µM, 6 hrs): 662.48%; Apoptosis Adipocytes (%) (adipocytes [2]; 100 µM, 48hrs): 304.15%; Apoptosis Adipocytes (%) (adipocytes [2]; 200 µM, 48hrs): 378.25%; Apoptosis Adipocytes (%) (adipocytes [2]; 300 µM, 6 hrs): 398.94%; Apoptosis Adipocytes (%) (adipocytes [2]; 300 µM, 48hrs): 238.76%; pro-apoptotic capacity (adipocytes [2]; summary of the apoptosis data): clear pro-apoptotic capacity; LDH release (indicative for membrane damage) from the adipocytes (adipocytes [3]): higher |
| C=C(C)[C@@H]1CC[C@]2(C(=O)O)CC[C@]3(C)[C@H](CC[C@@H]4[C@@]5(C)CC[C@H](O)C(C)(C)[C@@H]5CC[C@]43C)[C@@H]12 [Betulinic acid, (3β)-3-hydroxy-lup-20(29)-en-28-oic acid] | 104 | 70.7 | 32.3 | 4.9 | 72 | 81.8 | 48.5 | 45.1 | 17.5 | 0.45 | 35.5 | – | – | – | – | – | – | – | – | 85.6 | – |
